According to patent publication US20220009980A1, “TP5, A PEPTIDE INHIBITOR OF ABERRANT AND HYPERACTIVE CDK5/P25 AS TREATMENT FOR CANCER” (The United States of America,as represented by the …, priority 2018, published 2022):

Legend:
orthotopic glioblastoma = assay: Orthotopic glioblastoma mouse model; format: in vivo; settings: for proliferation rate: 100 μM or 300 μM of TP5; for tumor volume: 100 μM or 300 μM of TP5, FIG. 5
Description: The effect of TP5 administration in an orthotopic glioblastoma mouse model additionally was determined. 100 μM or 300 μM of TP5 was administered to the mice and tumor volume and proliferation rate were investigated.

[1] = tested on: glioblastoma cell line U251; assay: Viability of glioblastoma cell line U251; format: cell-based; settings: FIG. 1
Description: (§1) The viability of glioblastoma cell line U251 following the administration of TP5 (SEQ ID NO: 1) was determined. TP5 scrambled (SEQ ID NO: 2) was used as a control.

[2] = tested on: glioblastoma cell line U251; assay: Early and late apoptosis in glioblastoma cell line U251; format: cell-based; settings: FIG. 3
Description: The extent of early and late apoptosis in glioblastoma cell line U251 also was determined.

[3] = tested on: colorectal carcinoma cell line HT29; assay: DNA damage measured by expression of pH2Ax in HT29; format: cell-based; settings: FIG. 8
[4] = tested on: colorectal cancer colonies; assay: Number and viability of colorectal cancer colonies; format: cell-based; settings: different amounts of TP5; FIG. 7
Description: (§2) The viability of colorectal carcinoma cell line HT29 following the administration of TP5 (SEQ ID NO: 1) was determined. TP5 scrambled (SEQ ID NO: 2) was used as a control.

glioblastoma colonies = assay: Number and viability of glioblastoma colonies; format: cell-based; settings: different amounts of TP5; FIG. 2
Description: as §1

[5] = tested on: subcutaneous colorectal cancer; assay: Subcutaneous colorectal cancer mouse model; format: in vivo; settings: FIG. 9
Description: The effect of TP5 administration alone or in combination with chemotherapy (Sn38; 7-ethyl-10-hydroxycamptothecin) in a subcutaneous colorectal cancer mouse model additionally was determined. TP5, Sn38, or TP5+Sn38 was administered to the mice and tumor volume and proliferation rate were investigated.

[6] = tested on: glioblastoma cell line U251; assay: DNA damage measured by expression of pH2Ax in U251; format: cell-based; settings: FIG. 4
From the text: Although not wishing to be bound by any particular theory, TP5 is believed to increase DNA damage in a dose-dependent manner and impair DNA repair by reducing G2 phase and decreasing the phosphorylation of ATM.

[7] = tested on: colorectal carcinoma cell line HT29; assay: Viability of colorectal carcinoma cell line HT29; format: cell-based; settings: FIG. 6
Description: as §2

| Substance | proliferation rate (orthotopic glioblastoma) | tumor volume (orthotopic glioblastoma) | viability of glioblastoma cell line [1] | early and late apoptosis [2] | DNA damage as measured by expression of pH2Ax [3] | number and viability of colorectal cancer colonies [4] | number and viability of glioblastoma colonies (glioblastoma colonies) | tumor volume [5] | DNA damage as measured by expression of pH2Ax [6] | viability of colorectal carcinoma cell line [7] |
| --- | --- | --- | --- | --- | --- | --- | --- | --- | --- | --- |
| TP5 scrambled: scrambled TP5 peptide (SEQ ID NO: 2) used as a control (FWDRCLSGKMSSKGGGINAYARAARRAARR) [reference compound] | but not TP5 scrambled decreases the tumor volume and proliferation rate | but not TP5 scrambled decreases the tumor volume | but not TP5 scrambled decreased the viability of glioblastoma cell line | – | – | – | – | – | – | – |
| TP5: P5, a small peptide that selectively inhibits aberrant and hyperactive CDK5/p25, modified to facilitate passage through blood brain barrier; SEQ ID NO: 1 (KEAFWDRCLSVINLMSSKMLQINAYARAARRAARR) | decreases the tumor volume and proliferation rate | decreases the tumor volume | decreased the viability of glioblastoma cell line in a dose-dependent manner | increases the early and late apoptosis of glioblastoma cells | increases DNA damage in colorectal carcinoma cell line HT29 in a dose-dependent manner | decreased the number and viability of colorectal cancer colonies in a dose-dependent manner | decreased the number and viability of glioblastoma colonies in a dose-dependent manner | decreased the tumor volume of the mice | increases DNA damage in glioblastoma cell line U251 in a dose-dependent manner | decreased the viability of glioblastoma cell line in a dose-dependent manner |
